IC50 data for 81 compounds are collected here from PubChem BioAssay AID1159585 (Gregory J. Crowther, 2016).

SMILES strings stand for the structures.

One may read the IC50 as the midpoint of a concentration-inhibition curve.

The assay deals with Calcium-dependent protein kinase 1 (Plasmodium falciparum (isolate 3D7)) (UniProt P62344). Kind of assay: PfCDPK1 kinase inhibitors, biochemical, TCAMS library (AID 1159585).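 Further: inhibitors leave more ATP so luminescence rises with inhibition.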 The settings on record: recombinant PfCDPK1, Kinase-Glo ATP depletion luminescence. (In general: In Kinase-Glo more light means more ATP remaining.)
Calcium-dependent protein kinase 1 (Plasmodium falciparum (isolate 3D7)), sequence (P62344 whole entry, looked up): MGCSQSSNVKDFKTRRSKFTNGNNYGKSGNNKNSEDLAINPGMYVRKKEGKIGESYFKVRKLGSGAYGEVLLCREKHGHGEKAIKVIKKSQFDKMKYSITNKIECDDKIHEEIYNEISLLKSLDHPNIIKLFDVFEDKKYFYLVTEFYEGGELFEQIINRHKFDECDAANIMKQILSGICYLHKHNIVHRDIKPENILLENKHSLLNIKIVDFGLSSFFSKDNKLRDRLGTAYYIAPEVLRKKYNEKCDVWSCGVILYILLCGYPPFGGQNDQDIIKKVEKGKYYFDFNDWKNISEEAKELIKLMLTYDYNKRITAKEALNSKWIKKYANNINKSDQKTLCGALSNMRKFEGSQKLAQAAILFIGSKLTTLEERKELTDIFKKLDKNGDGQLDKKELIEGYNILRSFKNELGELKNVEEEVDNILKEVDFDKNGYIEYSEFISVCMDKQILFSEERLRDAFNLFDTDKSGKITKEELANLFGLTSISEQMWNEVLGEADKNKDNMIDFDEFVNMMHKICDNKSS
For the compound `Cc1cc(Nc2ncc(C#N)c(Nc3ccccc3C(N)=O)n2)ccc1N1CCN(C)CC1`, the IC50 is 10 nM. Then `Cc1cccc(Nc2nc(N[C@@H]3CCCNC3)nc3cc[nH]c(=O)c23)c1`, with 23 nM; and `CC(C)(CNCc1ccc(F)c(F)c1)c1nc(-c2ccc(Cl)c(O)c2)c(-c2ccnc(N)n2)[nH]1`, with 469 nM. Regarding `COCCNCc1cccc(-c2ccc3c(Nc4ccc(Oc5ccccc5)cc4)ccnc3c2)c1`, the IC50 is 979 nM. The value for `CC(C)(CNC(=O)C1CCN(Cc2ccc(Cl)cc2)CC1)c1nc(-c2ccc(Cl)c(O)c2)c(-c2ccncc2)[nH]1` was 347 nM. For the compound `CN(C)Cc1ccc(-c2ccc3c(Nc4ccc(Oc5ccccn5)cc4)ccnc3c2)o1`, the IC50 was 513 nM. As for `CCn1c(-c2nonc2N)nc2c(-c3cccc(NC(=O)Nc4ccc(C#N)cc4)c3)ncc(OCCCN)c21`, the IC50 is 235 nM. `O=C(Nc1cccc(-c2nn3ncccc3c2-c2ccnc(Nc3cccc(-c4cnco4)c3)n2)c1)c1c(F)cccc1F`: the IC50 was 23 nM. As for `CS(=O)(=O)Cc1ccc(Nc2nccc(N3CCCc4cc(NC(=O)Nc5cccc(C(F)(F)F)c5)ccc43)n2)cc1`, the IC50 is 145 nM. Regarding `COc1ccc(-c2cnc3ccc(NCCCO)nn23)cc1OC`, the IC50 was 361 nM.

Turning to `Oc1cc(Nc2ccnc3cc(I)ccc23)c(F)cc1Cl`, the IC50 is 282 nM. Then `CN1CCN(CCCNCc2ccc(Nc3nccc(Nc4ccc(Oc5ccccc5)cc4)n3)cc2)CC1`, with 139 nM; and `Cc1nnc(-c2cccc(Nc3ccnc4cc(-c5nccs5)ccc34)c2)o1`, with 186 nM. Then `COc1cc2nccc(Nc3ccc(Oc4ccccc4)cc3)c2cc1OC`, with 145 nM; and `CCn1c(-c2nonc2N)nc2c(-c3cccc(NC(=O)Nc4ccc5c(c4)CCC5)c3)ncc(OCCCN)c21`, with 85 nM. Then `Oc1cccc(-c2cnc3ccc(NCc4ccc(F)cc4)nn23)c1`, with 115 nM; and `CN(C)CCN(C)Cc1nc(-c2ccc3c(Nc4ccc(Oc5ccccc5)cc4)ccnc3c2)cs1`, with 915 nM; and `COCCOc1ccc(Nc2nccc(-c3c(-c4cccc(NC(=O)c5c(F)cccc5F)c4)nn4ccccc34)n2)cc1Cl`, with 152 nM.

With `O=C(NCCN1CCCCC1)c1ccc(Nc2nccc(Nc3ccc(Oc4ccccc4)cc3)n2)cc1`, the IC50 is 103 nM. The value for `CCn1c(-c2nonc2N)nc2c(-c3cccc(NC(=O)Nc4ccc(Cl)cc4)c3)ncc(OCCCN)c21` was 44 nM; that for `OC1CCC(Nc2ccc3ncc(-c4ccc(Cl)cc4)n3n2)CC1` (stereo unspecified) was 503 nM. The value for `Cn1cc(-c2ccnc3[nH]c(-c4cccc(CNC5CCC(O)CC5)c4)cc23)cn1` (stereo unspecified) was 46 nM.

In the case of `COc1cc(Nc2nccc(-c3c(-c4cccc(NC(=O)c5c(F)cccc5F)c4)nn4ccccc34)n2)cc(OC)c1OC`, the IC50 is 60 nM.

As for `O=C(Nc1cccc(-c2nn3ccccc3c2-c2ccnc(Nc3cccc(-c4cnco4)c3)n2)c1)C1CCCCC1`, the IC50 is 164 nM.

`COc1ccc(Nc2ncc(C#N)c(Nc3ccccc3C(N)=O)n2)cc1N1CCN(C)CC1`: the IC50 was 89 nM. Then `CCn1c(-c2nonc2N)nc2c(-c3cccc(NC(=O)Nc4cccc(Cl)c4)c3)ncc(OCCCN)c21`, with 379 nM.

For the compound `NC(=O)c1ccccc1Nc1nc(Nc2ccn[nH]2)ncc1Cl`, the IC50 is 186 nM.

On to `CCn1c(-c2nonc2N)nc2c(-c3ccc(CO)o3)ncc(OCCCN)c21`, for which the IC50 was 51 nM. For the compound `CS(=O)(=O)Cc1ccc(Nc2nccc(-c3c(-c4cccc(NC(=O)c5c(F)cccc5F)c4)nn4ccccc34)n2)cc1`, the IC50 is 20 nM.

With `NS(=O)(=O)c1ccc(Nc2nccc(-c3c(-c4cccc(NC(=O)c5c(F)cccc5F)c4)nn4ccccc34)n2)cc1`, the IC50 was 48 nM. Then `O=c1[nH]ccc2nc(N[C@@H]3CCNC3)nc(Nc3ccc4c(c3)S(=O)(=O)CC4)c12`, with 235 nM. Then `CC(C)(CNC(=O)C1CCN(CCOCc2ccccc2)CC1)c1nc(-c2ccc(Cl)c(O)c2)c(-c2ccncc2)[nH]1`, with 734 nM. Turning to `COc1ccc(CNCC(C)(C)c2nc(-c3ccc(Cl)c(O)c3)c(-c3ccncc3)[nH]2)cc1`, the 50% inhibitory concentration (IC50) is 186 nM. In the case of `Cc1csc(-c2ncc(OC[C@@H](N)Cc3ccccc3)cc2-c2ccc3n[nH]c(C)c3c2)c1`, the IC50 is 44 nM. For `CC(C)(CN)c1nc(-c2ccc(Cl)c(O)c2)c(-c2ccncc2)[nH]1`, the IC50 was 10 nM. The value for `CN(C)Cc1cccc(-c2cc3c(-c4cnn(C)c4)c(Cl)cnc3[nH]2)c1` was 402 nM. Then `CC(C)(CNC(=O)[C@H]1CCCCN1)c1nc(-c2ccc(Cl)c(O)c2)c(-c2ccncc2)[nH]1`, with 164 nM; and `Cc1cccc(Nc2nc(NCCCCN)nc3cc[nH]c(=O)c23)c1`, with 566 nM; and `CC(C)(CNCc1ccc(Cl)c(Cl)c1)c1nc(-c2ccc(Cl)c(O)c2)c(-c2ccncc2)[nH]1`, with 539 nM. Regarding `NS(=O)(=O)c1cccc(Nc2nccc(-c3c(-c4cccc(NC(=O)c5c(F)cccc5F)c4)nn4ccccc34)n2)c1`, the IC50 is 20 nM. For `CN1CCN(CCCNCc2cccc(Nc3nccc(Nc4ccc(Oc5ccccc5)cc4)n3)c2)CC1`, the IC50 is 261 nM. The value for `COCCNCc1cccc(-c2ccc3c(Nc4cc(O)c(Cl)cc4F)ccnc3c2)c1` was 436 nM; that for `CN1CCN(c2ccc(Nc3ncc(C#N)c(Nc4ccccc4C(N)=O)n3)cc2)CC1` was 12 nM. Consider `O=C(Nc1cccc(-c2nn3ccccc3c2-c2ccnc(Nc3ccc(-c4ccn[nH]4)cc3)n2)c1)c1c(F)cccc1F`, for which the IC50 was 22 nM. Then `NCCCOc1cnc(-c2ccccc2)c2nc(-c3nonc3N)n(CCc3ccccc3)c12`, with 47 nM; and `O=c1[nH]ccc2nc(N[C@@H]3CCCNC3)nc(Nc3ccc(S(=O)(=O)N4CCOCC4)cc3)c12`, with 146 nM; and `CNC(=O)c1ccccc1Nc1nc(Nc2ccc(N3CCN(C)CC3)nc2)ncc1C`, with 45 nM.

For the compound `O=C(NCC(c1ccc(C(F)(F)F)cc1)N1CCCC1)c1cc(-c2ccncc2)c(-c2cccc(O)c2)o1` (stereo unspecified), the 50% inhibitory concentration (IC50) was 283 nM. Then `CCn1c(-c2nonc2N)nc2c(-c3ccccc3)ncc(OCCCNCCCN3CCOCC3)c21`, with 42 nM; and `O=C(Nc1cccc(-c2nn3ccccc3c2-c2ccnc(Nc3ccc(NCCCN4CCOCC4)c(F)c3)n2)c1)c1c(F)cccc1F`, with 38 nM. For `COc1ccc(-c2cnc3ccc(NC4CCC(O)CC4)nn23)cn1` (stereo unspecified), the IC50 is 379 nM. As for `NCCCNc1nc(Nc2cccc(C(N)=O)c2)c2c(=O)[nH]ccc2n1`, the IC50 was 750 nM. The value for `CC(C)(CN)c1cc(-c2ccc(Cl)c(O)c2)c(-c2ccncc2)o1` was 13 nM. The value for `CCn1c(-c2nonc2N)nc2c(-c3cccc(Cl)c3)ncc(OCCCNCc3cnc(C)nc3N)c21` was 271 nM; that for `Cc1ccc(Nc2nccc(N(C)c3ccc4c(c3)nc(NC(=O)Cc3ccc(Cl)c(Cl)c3)n4C)n2)cc1S(N)(=O)=O` was 345 nM.

As for `CC(=O)Nc1cccc(Nc2nccc(-c3c(-c4cccc(NC(=O)c5c(F)cccc5F)c4)nn4ncccc34)n2)c1`, the IC50 was 15 nM. The value for `Nc1ncc(-c2cn[nH]c2)cc1-c1nc2ccc(Cl)cc2[nH]1` was 834 nM. Then `Nc1ncnc2occ(-c3ccc(NC(=O)Nc4cc(C(F)(F)F)ccc4F)cc3)c12`, with 165 nM.

For `CC(c1cccc(Nc2nccc(-c3c(-c4cccc(NC(=O)c5c(F)cccc5F)c4)nn4ccccc34)n2)c1)S(C)(=O)=O` (stereo unspecified), the IC50 was 21 nM. Regarding `Cc1ccc(O)cc1Nc1ccnc2cc(-c3cccc(CNCCS(C)(=O)=O)c3)ccc12`, the IC50 was 125 nM.

Consider `Cc1cc(F)ccc1-c1nc(Nc2ccncc2)c2ccn(C)c2n1`, for which the IC50 was 40 nM. As to `CN(C)CCNCc1ccc(-c2ccc3c(Nc4ccc(Oc5ccccc5)cc4)ccnc3c2)o1`, the IC50 is 681 nM.

For the compound `NCc1ccc(Nc2nccc(Nc3ccc(-c4ccccc4)cc3)n2)cc1`, the IC50 is 375 nM. For `CC(=O)Nc1cccc(Nc2nccc(Nc3ccc(Oc4ccccc4)cc3)n2)c1`, the half-inhibitory concentration (IC50) is 425 nM.

For the compound `O=c1[nH]ccc2nc(N[C@@H]3CCNC3)nc(Nc3cc(Cl)cc(Cl)c3)c12`, the concentration for half-maximal inhibition (IC50) was 33 nM.

For the compound `CS(=O)(=O)c1cccc(-c2cnc3[nH]cc(-c4cccc(CCN)c4)c3c2)c1`, the IC50 was 44 nM. For the compound `O=C(NCCCN1CCOCC1)c1cccc(Nc2nccc(Nc3ccc(Oc4ccccc4)cc3)n2)c1`, the IC50 is 180 nM. Then `CN(C)CCN(C)Cc1ccc(-c2ccc3c(Nc4ccc(Oc5ccccc5)cc4)ccnc3c2)o1`, with 718 nM; and `CC(C)(CNCc1ccc(OC(F)(F)F)cc1)c1nc(-c2ccc(Cl)c(O)c2)c(-c2ccncc2)[nH]1`, with 438 nM; and `NS(=O)(=O)c1cccc(Nc2nc(N[C@@H]3CCNC3)nc3cc[nH]c(=O)c23)c1`, with 83 nM.

`COc1ccc(Nc2ncc(OC)c(Nc3ccccc3C(N)=O)n2)cc1N1CCN(C)CC1`: the half-maximal inhibitory concentration (IC50) was 967 nM. Then `CC(C)(CNC(=O)C1CCN(CCOc2ccc(Cl)cc2)CC1)c1nc(-c2ccc(Cl)c(O)c2)c(-c2ccncc2)[nH]1`, with 471 nM; and `Oc1cccc(Nc2ccnc3cc(-c4ccncc4)ccc23)c1`, with 884 nM. The value for `O=C(NCCN1CCC(c2ccncc2)CC1)c1cccc(Nc2nccc(Nc3ccc(Oc4ccccc4)cc3)n2)c1` was 220 nM.

As for `Cc1ccc(Nc2ccnc(Nc3ccc4c(c3)CS(=O)(=O)C4)n2)cc1O`, the IC50 is 416 nM.

For the compound `NS(=O)(=O)CCc1cccc(Nc2nccc(-c3c(-c4cccc(NC(=O)c5c(F)cccc5F)c4)nn4ccccc34)n2)c1`, the IC50 was 20 nM. Regarding `CS(=O)(=O)CCNCc1cccc(-c2ccc3c(Nc4cc(O)c(Cl)cc4F)ccnc3c2)c1`, the IC50 is 71 nM. The value for `CC(c1cccc(Nc2nccc(-c3c(-c4cccc(NC(=O)c5c(F)cccc5F)c4)nn4ncccc34)n2)c1)S(C)(=O)=O` (stereo unspecified) was 95 nM; that for `O=C(Nc1c(F)cccc1F)c1cccc(-c2nn3ccccc3c2-c2ccnc(Nc3cccc(-c4cnco4)c3)n2)c1` was 40 nM; that for `CS(=O)(=O)Cc1ccc(Nc2nccc(-c3c(-c4cccc(C(=O)Nc5c(F)cccc5F)c4)nn4ccccc34)n2)cc1` was 50 nM. The value for `NCC1(c2nc(-c3ccc(Cl)c(O)c3)c(-c3ccncc3)[nH]2)CCCCC1` was 14 nM.
